Tests used:
[1] = system: male Hooded Wistar rats; assay: Social interaction test; type: in vivo, rat
Procedure: The primary phenotypic effect was a massive increase in a behaviour called “adjacent lying” where unfamiliar rats come together in passive social contact for prolonged periods. […] (n=6-8 pairs per condition, 20 minute test). Remarkably the effects of SOC-1 outlive its acute administration and a prolonged upregulation of social behaviour (measured as time spent in close proximity) in rats given only 3 doses of SOC-1, 2 weeks previously, was observed (FIG. 1, image (B)).

[2] = In vitro plasma stability assay; type: in vitro ADME; details: human, incubated at body temperature
[3] = target: human OT receptor (Homo sapiens, UniProt P30559); assay: Orthosteric binding against [3H]OT
[4] = target: human V1a receptor (Homo sapiens, UniProt P37288); assay: Orthosteric binding against [3H]AVP
[5] = target: T1, V1aR (Homo sapiens, UniProt P37288); assay: IP1 signalling on V1aR HEK cells; type: cell-based
T1 construct: expressed in transfected cells; host or cells: HEK cells

[6] = system: rat hypothalamic neurons; assay: Signalling in rat hypothalamic neurons; type: cell-based
[7] = system: male Sprague Dawley rats; assay: Methamphetamine-primed reinstatement; type: in vivo, rat
[8] = system: Sprague Dawley rats; assay: Acute toxicity, single intravenous bolus dose 1-30 mg/kg, one week dose range finding study; type: in vivo; details: for Hunched posture or gait- mild (incidence) / Number of abnormalities detected: (incidence) / Palpebral closure- mild/moderate (incidence) / Piloerection- mild (incidence) / Reduced activity- mild (incidence): n 3
Procedure: The acute toxicity of the SOC-1 test item was assessed in Sprague Dawley rats following intravenous administration of a single bolus dose. A total of four groups of n=3 adult female rats were treated with 1, 3, 10 and 30 mg/kg doses of SOC-1. The rats were then observed for 7 days prior to termination on Study Day 8 without necropsy.
The design of this acute single dose toxicity study in rats was adapted from OECD Guideline for Testing of Chemicals No. 420 Acute Oral Toxicity—Fixed Dose Procedure’ 2001 (2) and the test facility Standard Operating Procedure SP_T002 ‘Dose Range Finding Study in Rodents’. The study procedures were conducted as outlined below and according to related test facility Standard Operating Procedures.
Briefly, on completion of the acclimation period the study was commenced with administration of the treatment on Study Day 1. […] Body weights were also collected daily. On Study Day 8 the surviving animals were culled without necropsy.
The test item treatments were administered as a bolus intravenous injection in a dose volume of 2 mL/kg on Study Day 1 with restraint on conscious animals (with the exception of Group 4 where the treatment was administered in a dose volume of 6 mL/kg on lightly anaesthetised animals following the administration of isofluorane anaesthetic).
Morbidity and mortality observations were recorded daily during the acclimation period and on Day 8, and twice daily from Day 1 through Day 7.
Clinical observations were conducted at least once during the acclimation period. Clinical observations were conducted at least once daily from Day 1 up to and including the day prior to termination. On the day of treatment the animals were monitored continuously for the first 30 min post-treatment with formal observations made at 30 minutes, 1 hour and 4 hours post-treatment.
The clinical observations included examination of animals for changes in skin and fur, eyes and mucous membranes, respiratory and circulatory function, gait and posture, behaviour, tremors or convulsions and any other abnormal findings.
The clinical observations also included daily examination of the tail for any injection site reaction (for example, erythema or oedema).
Body weight was recorded once during the acclimation period and daily from the time of treatment on Day 1 to Day 8. The mean body weight values for study days 1-8 are shown as group mean±standard deviation (SD) in FIG. 14.

[9] = system: BALB/C mice; assay: Social preference test, BALB/C mouse model of autism spectrum disorders; type: in vivo; details: 5 mg/kg IP
Source text: BALB/C mice have autistic-like behaviours (including reduced interest in social stimuli) compared to standard C57BL/6 mice. In a social preference test, BALB/C mice show no preference for interacting with a social stimulus (a novel mouse) over an object stimulus (a novel object), whereas C57BL/6 mice show a robust preference.

T1 sequence (P37288 whole entry): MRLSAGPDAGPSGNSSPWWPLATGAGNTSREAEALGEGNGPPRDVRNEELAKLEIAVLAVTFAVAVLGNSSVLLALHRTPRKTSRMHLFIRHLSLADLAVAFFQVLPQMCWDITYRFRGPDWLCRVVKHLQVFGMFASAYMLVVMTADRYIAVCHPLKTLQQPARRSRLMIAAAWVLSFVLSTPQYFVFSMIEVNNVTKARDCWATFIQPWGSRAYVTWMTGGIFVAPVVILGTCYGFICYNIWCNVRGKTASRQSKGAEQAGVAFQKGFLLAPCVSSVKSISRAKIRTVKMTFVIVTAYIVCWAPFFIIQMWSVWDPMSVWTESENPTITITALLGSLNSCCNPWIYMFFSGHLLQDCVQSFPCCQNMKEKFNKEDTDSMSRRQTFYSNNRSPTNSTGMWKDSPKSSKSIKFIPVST
human OT receptor, sequence (P30559 whole entry): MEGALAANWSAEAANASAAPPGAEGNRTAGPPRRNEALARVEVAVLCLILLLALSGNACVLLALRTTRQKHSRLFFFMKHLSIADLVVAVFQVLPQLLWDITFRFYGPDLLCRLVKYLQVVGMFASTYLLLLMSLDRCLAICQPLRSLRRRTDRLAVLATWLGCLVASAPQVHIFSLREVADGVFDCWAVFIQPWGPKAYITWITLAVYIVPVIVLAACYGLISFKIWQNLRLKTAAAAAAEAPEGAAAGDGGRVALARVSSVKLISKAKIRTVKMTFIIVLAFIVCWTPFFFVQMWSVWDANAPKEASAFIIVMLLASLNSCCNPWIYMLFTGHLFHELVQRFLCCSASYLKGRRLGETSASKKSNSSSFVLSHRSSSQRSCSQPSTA
human V1a receptor, sequence (P37288 whole entry): as the sequence (P37288 whole entry) above

With `Cl.Cn1ncc2c1Nc1ccccc1NC2` [SOC-1] the “adjacent lying in the social interaction test” value ([1]; 5 and 10 mg/kg IP, 20 minute test) was “massive increase in adjacent lying”, the “pro-social effects compared with AVP, MDMA and WAY 267,464” value ([1]; most efficacious doses, adjacent lying) was “most powerful pro-social effects by a considerable margin” and the “proximity towards a novel conspecific (time spent within 1 body length)” value ([1]; two weeks following treatment, 3 doses in total across 6 days) was “increased proximity towards a novel conspecific relative to controls”. The half-life at 500 nM [2] was greater than 6 h, the IC50 [3] was greater than 10 µM and the IC50 [4] was greater than 10 µM. The “agonist or positive allosteric modulator activity at V1aR” value [5] was “not an agonist or positive allosteric modulator of V1aRs”, the “antagonist activity at V1aR” value [5] was “weak antagonist activity” and the “Ca^2+ levels” value [6] was “did not reliably alter Ca^2+ levels”. The IP1 levels [6] was “did not alter IP1 levels”, the “basal cAMP” value [6] was “able to decrease basal cAMP” and the “forskolin-stimulated cAMP” value [6] was “did not reliably decrease forskolin-stimulated cAMP”. The “lever-pressing activity, SOC-1 on its own (SOC-1+vehicle)” value ([7]; 10 mg/kg, vs extinction day prior, p=0.147) was “did not significantly alter lever-pressing activity”, the “locomotor activity across reinstatement sessions” value ([7]; 2.5 (p=0.006), 5 and 10 mg/kg (p<0.005) prior to methamphetamine prime) was “significantly lower” and the “active lever pressing produced by a methamphetamine prime” value ([7]; 2.5, 5 and 10 mg/kg IP, each p<0.005 vs vehicle) was “significantly reduced active lever pressing”. For the same compound, the “locomotor activity, sole administration of SOC-1” value ([7]; vs previous extinction session, p=0.472) was “did not significantly change locomotor activity”, the “Hunched posture or gait- mild (incidence)” value ([8]; 1 mg/kg IV) was 0 and the “Number of abnormalities detected: (incidence)” value ([8]; 1 mg/kg IV) was 3. For the same compound, the “Palpebral closure- mild/moderate (incidence)” value ([8]; 1 mg/kg IV) was 0, the “Piloerection- mild (incidence)” value ([8]; 1 mg/kg IV) was 0 and the “Reduced activity- mild (incidence)” value ([8]; 1 mg/kg IV) was 0. The “Hunched posture or gait- mild (incidence)” value ([8]; 3 mg/kg IV) was 0, the “Number of abnormalities detected: (incidence)” value ([8]; 3 mg/kg IV) was 3 and the “Palpebral closure- mild/moderate (incidence)” value ([8]; 3 mg/kg IV) was 0. The “Piloerection- mild (incidence)” value ([8]; 3 mg/kg IV) was 0, the “Reduced activity- mild (incidence)” value ([8]; 3 mg/kg IV) was 0 and the “reaction at the time of dose administration” value ([8]; 10 mg/kg IV in 0.9% saline) was “exaggerated flinch reaction and vocalisation”. For the same compound, the “Hunched posture or gait- mild (incidence)” value ([8]; 10 mg/kg IV) was 3, the “Number of abnormalities detected: (incidence)” value ([8]; 10 mg/kg IV) was 0 and the “Palpebral closure- mild/moderate (incidence)” value ([8]; 10 mg/kg IV) was 0. For the same compound, the “Piloerection- mild (incidence)” value ([8]; 10 mg/kg IV) was 3, the “Reduced activity- mild (incidence)” value ([8]; 10 mg/kg IV) was 0 and the “Hunched posture or gait- mild (incidence)” value ([8]; 30 mg/kg IV) was 0. The “Number of abnormalities detected: (incidence)” value ([8]; 30 mg/kg IV) was 0, the “Palpebral closure- mild/moderate (incidence)” value ([8]; 30 mg/kg IV) was 1 and the “Piloerection- mild (incidence)” value ([8]; 30 mg/kg IV) was 3. The “Reduced activity- mild (incidence)” value ([8]; 30 mg/kg IV) was 2, the “effect on body weight” value ([8]; 1, 3, 10 and 30 mg/kg IV) was “no effects of SOC-1 test item treatment on body weight” and the injection site reactions ([8]; 1, 3, 10 and 30 mg/kg IV) was “no findings of injection site reactions”. The morbidity and mortality ([8]; 1, 3, 10 and 30 mg/kg IV) was “no unscheduled deaths or findings of morbidity”, the tolerability ([8]; 1, 3, 10 and 30 mg/kg IV) was “tolerated in this study at all dose levels” and the “clinical findings post-dose on Study Day 1” value ([8]; 10 and 30 mg/kg IV) was “piloerection, hunched posture and gait and palpebral closure”. The “time to resolution of clinical findings post-dose” value ([8]; 10 and 30 mg/kg IV) was 4 to 24 h, the “Bodyweight, Mean” value ([8]; Group 1 (1 mg/kg IV), day 1) was 208.233 g and the “Bodyweight, Mean” value ([8]; Group 1 (1 mg/kg IV), day 2) was 203.733 g. For the same compound, the “Bodyweight, Mean” value ([8]; Group 1 (1 mg/kg IV), day 3) was 204.933 g, the “Bodyweight, Mean” value ([8]; Group 1 (1 mg/kg IV), day 4) was 208.100 g and the “Bodyweight, Mean” value ([8]; Group 1 (1 mg/kg IV), day 5) was 210.467 g. For the same compound, the “Bodyweight, Mean” value ([8]; Group 1 (1 mg/kg IV), day 6) was 215.300 g, the “Bodyweight, Mean” value ([8]; Group 1 (1 mg/kg IV), day 7) was 209.833 g and the “Bodyweight, Mean” value ([8]; Group 1 (1 mg/kg IV), day 8) was 216.633 g. For the same compound, the “Bodyweight, Mean” value ([8]; Group 2 (3 mg/kg IV), day 1) was 196.867 g, the “Bodyweight, Mean” value ([8]; Group 2 (3 mg/kg IV), day 2) was 193.700 g and the “Bodyweight, Mean” value ([8]; Group 2 (3 mg/kg IV), day 3) was 198.733 g. For the same compound, the “Bodyweight, Mean” value ([8]; Group 2 (3 mg/kg IV), day 4) was 199.233 g, the “Bodyweight, Mean” value ([8]; Group 2 (3 mg/kg IV), day 5) was 201.200 g and the “Bodyweight, Mean” value ([8]; Group 2 (3 mg/kg IV), day 6) was 204.733 g. The “Bodyweight, Mean” value ([8]; Group 2 (3 mg/kg IV), day 7) was 201.967 g, the “Bodyweight, Mean” value ([8]; Group 2 (3 mg/kg IV), day 8) was 206.333 g and the “Bodyweight, Mean” value ([8]; Group 3 (10 mg/kg IV), day 1) was 205.933 g. For the same compound, the “Bodyweight, Mean” value ([8]; Group 3 (10 mg/kg IV), day 2) was 207.267 g, the “Bodyweight, Mean” value ([8]; Group 3 (10 mg/kg IV), day 3) was 214.533 g and the “Bodyweight, Mean” value ([8]; Group 3 (10 mg/kg IV), day 4) was 216.100 g. For the same compound, the “Bodyweight, Mean” value ([8]; Group 3 (10 mg/kg IV), day 5) was 211.733 g, the “Bodyweight, Mean” value ([8]; Group 3 (10 mg/kg IV), day 6) was 213.433 g and the “Bodyweight, Mean” value ([8]; Group 3 (10 mg/kg IV), day 7) was 219.000 g. For the same compound, the “Bodyweight, Mean” value ([8]; Group 3 (10 mg/kg IV), day 8) was 218.900 g, the “Bodyweight, Mean” value ([8]; Group 4 (30 mg/kg IV), day 1) was 206.833 g and the “Bodyweight, Mean” value ([8]; Group 4 (30 mg/kg IV), day 2) was 202.567 g. The “Bodyweight, Mean” value ([8]; Group 4 (30 mg/kg IV), day 3) was 210.967 g, the “Bodyweight, Mean” value ([8]; Group 4 (30 mg/kg IV), day 4) was 216.500 g and the “Bodyweight, Mean” value ([8]; Group 4 (30 mg/kg IV), day 5) was 209.667 g. For the same compound, the “Bodyweight, Mean” value ([8]; Group 4 (30 mg/kg IV), day 6) was 213.367 g, the “Bodyweight, Mean” value ([8]; Group 4 (30 mg/kg IV), day 7) was 222.300 g and the “Bodyweight, Mean” value ([8]; Group 4 (30 mg/kg IV), day 8) was 219.767 g. The acute tolerated dose ([8]; bolus intravenous injection, female rats) was “at least 30 mg/kg”, the “time spent investigating the object stimulus (a novel object)” value [9] was “significantly increased the amount of time the BALB/C mice spent investigating the object stimulus” and the “time spent investigating the social stimulus (a novel mouse)” value [9] was “significantly increased the amount of time BALB/C mice spent investigating the social stimulus”.
